The record followed here is patent US10150728B2, “Alkylene derivatives” (Shionogi & Co., Ltd., priority 2013, dated 2018).

Chain of recombinant human ACC2 (O00763 27-2458): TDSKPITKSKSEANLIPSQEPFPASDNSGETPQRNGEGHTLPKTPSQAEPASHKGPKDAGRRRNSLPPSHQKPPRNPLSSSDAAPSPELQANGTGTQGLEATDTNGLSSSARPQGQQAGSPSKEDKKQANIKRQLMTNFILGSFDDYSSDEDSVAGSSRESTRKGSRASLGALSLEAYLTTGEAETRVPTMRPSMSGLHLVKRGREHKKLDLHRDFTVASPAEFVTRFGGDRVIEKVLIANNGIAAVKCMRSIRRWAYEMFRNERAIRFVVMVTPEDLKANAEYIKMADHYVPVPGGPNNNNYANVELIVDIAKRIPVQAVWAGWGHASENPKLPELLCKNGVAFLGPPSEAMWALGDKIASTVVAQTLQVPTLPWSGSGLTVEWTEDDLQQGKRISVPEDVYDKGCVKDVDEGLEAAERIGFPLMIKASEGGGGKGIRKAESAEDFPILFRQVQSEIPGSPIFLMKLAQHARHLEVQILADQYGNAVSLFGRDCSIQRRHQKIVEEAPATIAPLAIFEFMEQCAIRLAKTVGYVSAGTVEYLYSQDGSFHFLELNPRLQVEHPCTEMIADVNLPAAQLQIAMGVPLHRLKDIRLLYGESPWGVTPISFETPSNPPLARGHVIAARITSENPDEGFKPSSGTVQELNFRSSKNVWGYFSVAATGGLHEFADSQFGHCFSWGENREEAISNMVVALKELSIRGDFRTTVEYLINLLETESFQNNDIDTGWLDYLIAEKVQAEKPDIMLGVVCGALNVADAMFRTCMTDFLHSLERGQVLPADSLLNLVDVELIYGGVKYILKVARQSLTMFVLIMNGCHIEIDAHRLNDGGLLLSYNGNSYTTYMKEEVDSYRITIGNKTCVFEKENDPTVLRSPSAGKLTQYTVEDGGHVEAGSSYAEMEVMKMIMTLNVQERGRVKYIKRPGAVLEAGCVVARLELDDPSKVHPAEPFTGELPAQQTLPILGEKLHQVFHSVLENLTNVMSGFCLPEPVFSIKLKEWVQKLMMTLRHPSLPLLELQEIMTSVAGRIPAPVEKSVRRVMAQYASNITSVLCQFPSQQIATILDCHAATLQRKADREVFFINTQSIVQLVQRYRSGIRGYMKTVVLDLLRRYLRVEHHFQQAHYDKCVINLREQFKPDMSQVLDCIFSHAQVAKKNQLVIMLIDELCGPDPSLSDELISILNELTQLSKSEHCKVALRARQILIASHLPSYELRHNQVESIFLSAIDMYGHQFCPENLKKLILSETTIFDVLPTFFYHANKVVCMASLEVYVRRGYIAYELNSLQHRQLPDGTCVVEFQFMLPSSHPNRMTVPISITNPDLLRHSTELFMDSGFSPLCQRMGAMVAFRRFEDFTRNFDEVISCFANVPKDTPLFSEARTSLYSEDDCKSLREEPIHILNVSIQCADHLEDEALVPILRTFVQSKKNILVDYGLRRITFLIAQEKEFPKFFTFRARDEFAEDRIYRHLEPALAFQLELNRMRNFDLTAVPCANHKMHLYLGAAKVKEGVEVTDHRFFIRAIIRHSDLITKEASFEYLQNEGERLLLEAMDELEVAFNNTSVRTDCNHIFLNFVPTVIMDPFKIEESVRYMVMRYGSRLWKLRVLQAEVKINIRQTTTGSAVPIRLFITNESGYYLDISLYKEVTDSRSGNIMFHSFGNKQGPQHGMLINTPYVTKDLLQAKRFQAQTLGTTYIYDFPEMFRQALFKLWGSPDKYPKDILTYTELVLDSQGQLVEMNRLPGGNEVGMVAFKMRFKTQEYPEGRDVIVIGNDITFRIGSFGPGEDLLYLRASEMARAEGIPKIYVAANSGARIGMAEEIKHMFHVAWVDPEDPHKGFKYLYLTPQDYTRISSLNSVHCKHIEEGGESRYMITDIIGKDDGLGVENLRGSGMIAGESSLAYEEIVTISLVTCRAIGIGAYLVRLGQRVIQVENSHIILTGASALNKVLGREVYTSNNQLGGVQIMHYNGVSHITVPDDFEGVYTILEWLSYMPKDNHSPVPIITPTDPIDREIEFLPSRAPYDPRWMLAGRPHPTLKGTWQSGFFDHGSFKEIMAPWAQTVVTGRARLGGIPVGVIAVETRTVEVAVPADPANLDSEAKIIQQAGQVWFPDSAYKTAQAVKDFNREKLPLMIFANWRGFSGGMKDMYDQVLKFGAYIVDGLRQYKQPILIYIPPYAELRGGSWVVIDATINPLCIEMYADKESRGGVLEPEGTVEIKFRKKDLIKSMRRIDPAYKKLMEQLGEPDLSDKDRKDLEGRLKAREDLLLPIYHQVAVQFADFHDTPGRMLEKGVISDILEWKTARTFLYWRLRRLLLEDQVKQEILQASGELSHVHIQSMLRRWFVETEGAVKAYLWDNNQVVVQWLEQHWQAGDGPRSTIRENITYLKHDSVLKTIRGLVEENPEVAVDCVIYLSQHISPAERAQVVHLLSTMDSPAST

In the experiment the target is recombinant human ACC2 (Homo sapiens (Human), UniProt O00763). As to the kind of experiment: Measurement of inhibitory activity on human ACC2 (MALDI-TOF MS, acetyl CoA to malonyl CoA conversion). The note with it: Table 154. The class given is biochemical. The text has this:
Preparation 1: Preparation of Recombinant Human ACC2
After a cDNA encoding human ACC2 (27 amino acid residue to 2458 amino acid residues from the N-terminus) was cloned from human kidney cDNA library (Clontech), human ACC2 gene containing His-tag sequence at 5′ terminus was inserted into pFastBac1 (Invitrogen). Recombinant baculovirus was generated using Bac-to-Bac baculovirus expression system (Invitrogen) according to the manufacturer's protocol. To express human ACC2, Sf-9 cells were infected with recombinant baculovirus. After infected cells were disrupted, the filtrated lysate was subjected to Ni-affinity chromatography and anion-exchange chromatography. The fractions containing human ACC2 protein were pooled as recombinant human ACC2 solution.
The Measurement of Inhibitory Activity on Human ACC1 and the ACC2
Recombinant human ACC1 and recombinant human ACC2, which were prepared by the method mentioned above, were preincubated with assay buffer solution (50 mM HEPES-KOH (pH 7.4), 10 mM magnesium chloride, 6-10 mM potassium citrate, 4 mM reduced form of glutathione, 1.5 mg/ml bovine serum albumin) for one hour. Then, 0.2 μL of each this invention compound solution (in DMSO) were dispensed to 384-well microplate, 5 μL of the preincubated enzyme solution and 5 μL of substrate solution (50 mM HEPES-KOH (pH 7.4), 1 mM ATP, 0.8 mM acetyl CoA and 25-50 mM potassium bicarbonate) were added to microplate. After centrifugation and shaking, the reaction mixtures were incubated in a humidified box at room temperature for 1 to 3 hours. After the incubation, the enzyme reactions were stopped by the addition of EDTA. Then, after the samples were cocrystallized with CHCA (α-cyano-4-hydroxy cinnamic acid) matrices on MALDI target plate, by using the matrix assist laser […] time-of-flight mass spectrometer (MALDI-TOF MS), samples were measured in reflector negative mode. Deprotonated ions of acetyl CoA (AcCoA) of substrate and malonyl CoA (MalCoA) of the reaction product were detected, then, the conversion rates of acetyl CoA to malonyl CoA was calculated by the intensity of [MalCoA-H]−/(Intensity of [MalCoA-H]−+Intensity of [AcCoA-H]−) using each signal strength. […] In addition, potassium citrate concentrations in assay buffer solution, potassium hydrogen carbonate concentrations in substrate solution and incubation time were adjusted by each lot of enzyme.
For orientation: IC50 means the concentration at which inhibition is half-maximal. `CCCc1ccc(Oc2ccc(OC[C@H](C)NC(C)=O)cn2)c(Cl)c1` [Compound I-004]: the half-inhibitory concentration (IC50) was 3730 nM. For `CCCc1ccc(Oc2ccc(OC[C@H](C)NC(C)=O)cc2)c(Cl)c1` [Compound I-005], the IC50 is 184 nM. Next, `CCCc1ccc(Oc2ccc(OC[C@H](C)NC(N)=O)cc2)c(Cl)c1` [Compound I-006]: 348 nM.

`CCCc1ccc(Oc2ccc(OC[C@H](C)NC(=O)NCC)cc2)c(Cl)c1` [Compound I-007]: the 50% inhibitory concentration (IC50) was determined as 1390 nM. Regarding `CC(=O)N[C@@H](C)CC(=O)c1ccc(Oc2ccc(OCC3CC3)cc2Cl)nc1` [Compound I-008], the concentration for half-maximal inhibition (IC50) is 220 nM. For the compound `CCCc1ccc(Oc2ccc(C(=O)C[C@H](C)NC(C)=O)nc2)c(Cl)c1` [Compound I-009], the IC50 was 1060 nM. Next, `CCCc1ccc(Oc2ccc(OCC[C@H](C)NC(C)=O)cc2)c(Cl)c1` [Compound I-010]: 1010 nM. Consider `CCCc1ccc(Oc2ccc(O[C@@H](C)[C@H](C)NC(C)=O)nc2)c(Cl)c1` [Compound I-011], for which the IC50 was 120 nM. As for `CC(=O)N[C@@H](C)COc1ccc(Oc2ccc3nc(C(C)C)sc3c2Cl)cn1` [Compound I-012], the IC50 worked out at 64 nM. Then `CC(=O)N[C@@H](C)COc1ccc(Oc2ccc3nc(C(C)C)sc3c2C#N)cn1` [Compound I-013], with 395 nM; and `CC(=O)N[C@@H](C)[C@H](C)Oc1ccc(Oc2ccc3nc(C(C)C)sc3c2Cl)cn1` [Compound I-014], with 759 nM. On to `CCC(C)(C)c1ccc(Oc2ccc(OC[C@H](C)NC(C)=O)nc2)c(Cl)c1` [Compound I-016], for which the half-maximal inhibitory concentration (IC50) was determined as 400 nM.

On to `CC(=O)N[C@@H](C)COc1ccc(Oc2ccc3nc(C(C)C)sc3c2F)cn1` [Compound I-018], for which the IC50 was 75 nM. Then `CCCc1ccc(Oc2cnc(OC[C@H](C)NC(C)=O)cn2)c(Cl)c1` [Compound I-021], with 502 nM; and `CC(=O)N[C@@H](C)COc1ccc(Oc2ccc3c(c2Cl)CCN(C(=O)OC(C)(C)C)C3)cn1` [Compound I-022], with 1250 nM. As to `CC(=O)N[C@@H](C)COc1ccc(Oc2ccc3c(c2Cl)CCN(c2ncc(F)cn2)C3)cn1` [Compound I-023], the IC50 turned out to be 38 nM. Then `CC(C)c1nc2ccc(Oc3ccc(OC[C@H](C)NC(N)=O)nc3)c(Cl)c2s1` [Compound I-024], with 133 nM.

With `CC(C)c1nc2ccc(Oc3ccc(OC[C@H](C)NC(=O)CO)nc3)c(Cl)c2s1` [Compound I-025], the IC50 was determined as 652 nM. For `CC(=O)N[C@@H](C)COc1cnc(Oc2ccc3nc(C(C)C)sc3c2F)cn1` [Compound I-026], the half-maximal inhibitory concentration (IC50) is 20 nM. For the compound `CC(=O)N[C@@H](C)COc1cnc(Oc2ccc3nc(C(C)(C)O)sc3c2Cl)cn1` [Compound I-027], the IC50 worked out at 378 nM. Next, `CC(=O)N[C@@H](C)COc1cnc(Oc2ccc3nc(C(C)(F)F)sc3c2Cl)cn1` [Compound I-028]: 28 nM; `CC(=O)N[C@@H](C)COc1ccc(Oc2cc(F)c3nc(C(C)C)sc3c2Cl)cn1` [Compound I-029]: 68 nM; `CC(=O)N[C@@H](C)COc1cnc(Oc2ccc3nc(C(C)C)oc3c2F)cn1` [Compound I-031]: 52 nM.

For `CC(=O)N[C@@H](C)COc1cnc(Oc2c(F)cc3nc(C(C)C)sc3c2F)cn1` [Compound I-032], the IC50 came out at 52 nM.

With `CCC(F)(F)c1nc2ccc(Oc3cnc(OC[C@H](C)NC(C)=O)cn3)c(Cl)c2s1` [Compound I-033], the half-maximal inhibitory concentration (IC50) stood at 50 nM. Next, `CC(=O)N[C@@H](C)COc1cnc(Oc2ccc3nc(C4CC4)sc3c2F)cn1` [Compound I-034]: 49 nM. As for `CC(=O)N[C@@H](C)COc1cnc(Oc2ccc3nc(C4(C)CC4)sc3c2Cl)cn1` [Compound I-035], the IC50 stood at 102 nM. For the compound `CC(=O)N[C@@H](C)COc1cnc(Oc2ccc3nc(C(C)(F)F)sc3c2F)cn1` [Compound I-036], the IC50 turned out to be 15 nM. In the case of `CC(=O)N[C@@H](C)COc1cnc(Oc2ccc3nc(C(C)C)sc3c2Cl)cn1` [Compound I-038], the IC50 is 72 nM. Then `CCOc1nc2ccc(Oc3cnc(OC[C@H](C)NC(C)=O)cn3)c(Cl)c2s1` [Compound I-039], with 16 nM. Next, `CC(=O)N[C@@H](C)COc1cnc(Oc2ccc3nc(C(C)(F)F)sc3c2C#N)cn1` [Compound I-041]: 102 nM; `CC(=O)N[C@@H](C)CO[C@H]1CC[C@H](Oc2ccc3nc(C(C)C)sc3c2F)CC1` [Compound I-042]: 15 nM. Then `CC(=O)N[C@@H](C)COc1cnc(Oc2ccc3nc(C(C)(F)F)oc3c2F)cn1` [Compound I-043], with 93 nM; and `CC(=O)N[C@@H](C)CO[C@H]1CC[C@@H](Oc2ccc3nc(C(C)C)sc3c2F)CC1` [Compound I-044], with 756 nM.

As for `CCOc1nc2ccc(Oc3cnc(OC[C@H](C)NC(C)=O)cn3)c(F)c2s1` [Compound I-045], the concentration for half-maximal inhibition (IC50) amounted to 8 nM. In the case of `CC(=O)N[C@@H](C)CO[C@H]1CC[C@H](Oc2ccc3nc(C(C)C)sc3c2Cl)CC1` [Compound I-046], the IC50 was 213 nM. Then `CC(=O)N[C@@H](C)CO[C@H]1CC[C@H](Oc2ccc3nc(C(C)(C)O)sc3c2Cl)CC1` [Compound I-047], with 336 nM; and `CC(=O)N[C@@H](C)[C@H](C)Oc1cnc(Oc2ccc3nc(C(C)C)sc3c2F)cn1` [Compound I-048], with 83 nM; and `CC(=O)N[C@@H](C)[C@@H](C)Oc1cnc(Oc2ccc3nc(C(C)C)sc3c2F)cn1` [Compound I-049], with 134 nM. Then `CC(=O)N[C@@H](C)COc1cnc(Oc2ccc3nc(C4(F)CC4)sc3c2F)cn1` [Compound I-050], with 10 nM; and `CC(=O)N[C@@H](C)CO[C@H]1CC[C@H](Oc2ccc3nc(C(C)C)sc3c2C#N)CC1` [Compound I-051], with 84 nM; and `CC(=O)N[C@@H](C)CO[C@H]1CC[C@H](Oc2ccc3nc(C(C)(F)F)sc3c2Cl)CC1` [Compound I-052], with 265 nM. With `CC(=O)N[C@@H](C)CO[C@H]1CC[C@H](Oc2ccc3nc(C(C)(F)F)sc3c2F)CC1` [Compound I-053], the half-maximal inhibitory concentration (IC50) turned out to be 12 nM. Next, `CCOc1nc2ccc(O[C@H]3CC[C@H](OC[C@H](C)NC(C)=O)CC3)c(Cl)c2s1` [Compound I-054]: 15 nM; `CCOc1nc2ccc(O[C@H]3CC[C@H](OC[C@H](C)NC(C)=O)CC3)c(F)c2s1` [Compound I-055]: 13 nM. With `CC(=O)N[C@@H](C)[C@H](C)Oc1cnc(Oc2ccc3nc(C(C)(F)F)sc3c2F)cn1` [Compound I-056], the 50% inhibitory concentration (IC50) turned out to be 57 nM. For the compound `CC(=O)N[C@@H](C)[C@@H](C)Oc1cnc(Oc2ccc3nc(C(C)(F)F)sc3c2F)cn1` [Compound I-057], the IC50 came to 166 nM. Next, `CCOc1nc2ccc(Oc3cnc(O[C@@H](C)[C@H](C)NC(C)=O)cn3)c(F)c2s1` [Compound I-059]: 29 nM; `CCOc1nc2ccc(Oc3cnc(O[C@H](C)[C@H](C)NC(C)=O)cn3)c(F)c2s1` [Compound I-061]: 115 nM; `CC(=O)N[C@@H](C)CO[C@H]1CC[C@H](Oc2ccc3nc(C(C)C)oc3c2F)CC1` [Compound I-062]: 24 nM.

With `CCc1nsc2c(Cl)c(Oc3cnc(OC[C@H](C)NC(C)=O)cn3)ccc12` [Compound I-063], the IC50 came out at 128 nM.
